Laboratory results reported in US4084951A, “Silicon compounds containing nucleofugal phosphate group and method of regulating plant growth therewith” (priority 1971, dated 1978).

What was measured:
[1] = Half lives of various silanes in 0.1M aqueous phosphate buffers at pH 7 and 25°; type: physicochemical; details: 0.1M aqueous phosphate buffer, pH 7, 25°
Protocol: Half lives of various silanes in 0.1M aqueous
phosphate buffers at pH 7 and 25°.

[2] = system: Hevea brasiliensis seedlings; assay: Average rubber yield of seedlings treated with silane, neat liquid or 12% solution in petroleum jelly; type: in vivo
Protocol: Three Hevea brasiliensis seedlings were treated with 2-chloroethyltrimethoxysilane (2 μ1) applied as a neat liquid. Three similar seedlings were treated with the same weight of compound applied as a 12% solution in petroleum jelly. The following average yields of rubber were obtained (yield in mg of dry rubber, expressed as a percentage of pretreatment yields in parentheses).

[3] = system: Hevea brasiliensis trees (Clone Tjirandji 1); assay: Yield of dried rubber from trees treated on scraped bark below the tapping cut; type: in vivo; details: 20% w/w in palm oil, alternate-day half-spiral tapping, mean over two weeks
Protocol: A solution of 20% w/w of diphenyl 2-(trimethylsilyl)ethylphosphate in palm oil was applied to 11/2 inch wide strip of scraped bark just below the tapping cut of Hevea brasiliensis trees (Clone Tjirandji 1). The trees were tapped on alternate days using a half-spiral tapping cut. The yield of dried rubber obtained over a four-week period was measured. The mean yields over two weeks, expressed as grams of dry rubber per tree per tapping was 45.5 (194% of control).

[4] = 12% solution in petroleum jelly, 3 days after treatment
[5] = 12% solution in petroleum jelly, 7 days after treatment
[6] = 12% solution in petroleum jelly, 12 days after treatment
[7] = 12% solution in petroleum jelly, 16 days after treatment
[8] = 12% solution in petroleum jelly, 24 days after treatment
[9] = 12% solution in petroleum jelly, 30 days after treatment
[10] = 12% solution in petroleum jelly, 34 days after treatment
[11] = 12% solution in petroleum jelly, 42 days after treatment
[12] = neat liquid (2 μl), 3 days after treatment
[13] = neat liquid (2 μl), 7 days after treatment
[14] = neat liquid (2 μl), 12 days after treatment
[15] = neat liquid (2 μl), 16 days after treatment
[16] = neat liquid (2 μl), 24 days after treatment
[17] = neat liquid (2 μl), 30 days after treatment
[18] = neat liquid (2 μl), 34 days after treatment
[19] = neat liquid (2 μl), 42 days after treatment

CC(C)O[Si](CCCl)(OC(C)C)OC(C)C [2-chloroethyltriisopropoxysilane]
half-life [1]: 30200 min

CO[Si](CCCl)(OC)OC [2-chloroethyltrimethoxysilane]
half-life [1]: 20 min | average yield of dry rubber [2, 4]: 2.2 mg | yield as a percentage of pretreatment yields [2, 4]: 160% | average yield of dry rubber [2, 5]: 2.3 mg | yield as a percentage of pretreatment yields [2, 5]: 164% | average yield of dry rubber [2, 6]: 2.3 mg | yield as a percentage of pretreatment yields [2, 6]: 164% | average yield of dry rubber [2, 7]: 3.0 mg | yield as a percentage of pretreatment yields [2, 7]: 215% | average yield of dry rubber [2, 8]: 2.2 mg | yield as a percentage of pretreatment yields [2, 8]: 160% | average yield of dry rubber [2, 9]: 2.3 mg | yield as a percentage of pretreatment yields [2, 9]: 164% | average yield of dry rubber [2, 10]: 1.8 mg | yield as a percentage of pretreatment yields [2, 10]: 128% | average yield of dry rubber [2, 11]: 0.9 mg | yield as a percentage of pretreatment yields [2, 11]: 65% | average yield of dry rubber [2, 12]: 2.1 mg | yield as a percentage of pretreatment yields [2, 12]: 230% | average yield of dry rubber [2, 13]: 2.2 mg | yield as a percentage of pretreatment yields [2, 13]: 245% | average yield of dry rubber [2, 14]: 1.3 mg | yield as a percentage of pretreatment yields [2, 14]: 145% | average yield of dry rubber [2, 15]: 1.1 mg | yield as a percentage of pretreatment yields [2, 15]: 122% | average yield of dry rubber [2, 16]: 0.9 mg | yield as a percentage of pretreatment yields [2, 16]: 100% | average yield of dry rubber [2, 17]: 0.8 mg | yield as a percentage of pretreatment yields [2, 17]: 90% | average yield of dry rubber [2, 18]: 1.2 mg | yield as a percentage of pretreatment yields [2, 18]: 134% | average yield of dry rubber [2, 19]: 1.0 mg | yield as a percentage of pretreatment yields [2, 19]: 112%

CC[S+](C)CC[Si](OC)(OC)OC.[I-] (centres unmarked) [ethyl methyl 2-(trimethoxysilyl)-ethyl sulphonium iodide]
half-life [1]: 840 min

C[Si](C)(C)CCOP(=O)(Oc1ccccc1)Oc1ccccc1 [diphenyl 2-(trimethylsilyl)-ethyl phosphate]
mean yield of dry rubber per tree per tapping [3]: 45.5 grams of dry rubber per tree per tapping | mean yield relative to control [3]: 194 % of control

C[Si](C)(C)CCCl [2-chloroethyltrimethylsilane]
half-life [1]: < 1 min
